From patent US4530932A, “4-(1H-indol-3-yl)-α-methyl-piperidine-1-ethanol derivatives” (Roussel Uclaf, priority 1982, dated 1985) come the findings set out here.

Structures can show the parent of a compound that is named as a salt. Where two headings read alike, the source gives them in different places.

Series [1] relates to cardiac rhythm troubles in guinea pigs. Nature of the series: Antiarythmic action (K-strophanthine and adrenaline induced cardiac rhythm troubles). The settings on record: Cavia porcellus, 1 h, oral 10 mg/kg, one hour before K-strophanthine and adrenaline perfusion, read-out: Percentage of protection (lengthening of the time of appearance of cardiac rhythm troubles as compared to controls). The series is classed as in vivo, guinea pig. The method, then: Male guinea pigs weighing between 450 and 500 g were tracheotomized while anesthesized by intraperitoneal administration of […] of urethane and were subjected to artifical respiration of 40 to 50 breaths of 5 ml per minute. Needles were subcutaneously implanted to register an electrocardiogram of the guinea pigs for the signal of D II derivation. The test products were orally administered and one hour later, the jugular vein of the guinea pigs were perfused with 0.5 ml per minute of a solution of 150 γ/ml of K-strophanthine and 0.5 ml per minute of a solution of 5 γ/ml of adrenaline and the number of times of the appearance of cardiac rhythm troubles was noted. The results are expressed in percentage of protection with an oral dose of 10 mg/kg of test product that is to say the percentage of lengthening of the time of appearance of cardiac rhythm troubles as compared to the controls.

The next series deals with α1 adrenergic receptors. Nature of the series: Affinity for α1 adrenergic receptors (3H prazosine displacement, rat brain). It counts as binding. The settings on record: relative to phentolamine (ARL=100×(CB/CX)), 25° C., pH 7.7. The method, then:
After centrifugation at 30,000 g for 15 minutes at 0° to 4° C., the culot was suspended in 240 ml of buffer Tris HCl 50 mM (pH-7.7) and the suspension was centrifuged at 30,000 g for 20 minutes at 0° to 4° C. The new culot was suspended in 480 ml of buffer Krebs Tris HCl (pH of 7.7-50 mM) and 2 ml of the suspension in the presence of 3H prazosine at a concentration of […] alone and with increasing concentrations of the test compound or with non-radioactive phentolamine at a concentration of 10^-5 M to determine the non-specific fixation was incubated at 25° C. for 30 minutes.
The incubated suspensions were filtered through Whatman FG/C and the filtered were washed with 3 times with 5 ml of buffer Krebs Tris HCl-pH of 7.7 at 0° to 4° C. The radioactivity of the filters was measured by liquid scintillation and the affinity of the test compound for α1 adrenergic receptors was compared relative to phentolamine as the reference compound by the formula
CD=concentration of phentolamine inhibiting by 50% the specific fixation of 3H prazosine.
CX=concentration of test product inhibiting by 50% the specific fixation of 3H prazosine.

Series [2] relates to Rat arteries (arterial contractions, entry of calcium ions into the cells of smooth muscles). Put plainly: In vitro anticalcic activity (inhibition of potassium-depolarized, calcium-induced contractions of isolated rat arteries). The series is classed as cell-based. The settings on record: dose inhibiting by 50% the contractions caused by potassium ions (100 mM), 37° C., read-out: CI50 (the source's name). The method, then: Rat arteries decoupled in a spiral were attached to a tension collector and were maintained in tanks containing 2.5 ml of Krebs-sodium bicarbonate buffer (NaCl: 120.8 mM, KCl: 5.9 mM, MgCl2 : 1.2 mM, NaH2 PO4 : 1.2 mM, NaHCO3 : 15.5 mM, glucose: 12.6 mM), at 37° C. covered with a 95%-5% oxygen-carbon dioxide mixture. The preparations were depolarized with a buffered solution containing 100 mM of potassium ions (NaCl: 26.7 mM, KCl: 100 mM, MgCl2 : 1.2 mM, NaH2 PO4 : 1.2 mM, NaHCO3 : 15.5 mM, glucose 12.6 mM).
A volume of 25 μl of calcium chloride was added to the mixture in a manner to obtain a range of increasing concentrations of calcium ions from 0.1 to 3.0 mM and the contractions of the artery were measured to obtain a control. The operation with range of calcium ions was repeated every 15 minutes and the preparation was washed 4 times after each range. When a stable response was obtained, the operation with the range of calcium ions was effected in the presence of varying concentrations of test compounds until a stable response was obtained.
The arterial contractions depend on the entry of calcium ions into the cells of smooth muscles and are provoked by depolarization of smooth muscles by potassium ions and by action of noradrenaline freed by presynapthic level. By recommencing the operation with denerved arteries by the action of 6-hydroxy-dopamine, the specific action due to noradrenaline is suppressed.

The subject of another series is mice. Put plainly: Acute toxicity (DL0, oral). It counts as in vivo, mouse. The arrangement: unit not given here.
Another series has as its target T1, β1 adrenergic receptors (Rattus norvegicus, UniProt P18090).
T1 construct: 10 cortexes removed from the brains of male rats weighing an average of 150 g; from tissue; host or cells: cerebral cortex of male rats (membranes)
Put plainly: Affinity for β1 adrenergic receptors (3H dihydroalprenolol displacement, rat brain cortex). It counts as binding. The settings on record: relative to propranolol, 37° C., pH 7.7. The method, then: The test was inspired by that of Mohler et al [Science, Vol. 198 (1977), p. 849-851] and 10 cortexes removed from the brains of male rats weighing an average of 150 g were homogenized in 90 ml of 0.32M of sucrose. After centrifuging the homogenized mixture at 1000 g for 20 minutes at 0° C., the surnageant was centrifuged at 30,000 g for 15 minutes at 0° to 4° C. The culot was suspended in 120 ml of buffer Tris HCl 50 mM with a pH of 7.7 and was centrifuged at 30,000 g for 15 minutes at 0° to 4° C. The resulting culot was suspended in 480 ml of buffer Krebs Tris HCl (50 mM-pH of 7.7) and 2 ml of the suspension in the presence of 3H dihydroalprenolol at a concentration of 10^-9 M alone and with increasing concentrations of the test compound or with non-radioactive propranolol at a concentration of 10^-5 M to determine the non-specific fixation was incubated at 37° C. for 10 minutes.
The incubated suspensions were filtered through Whatman GF/C and the filters were washed 3 times with 5 ml of buffer Krebs Tris HCl (pH-7.7) at 0° C. The radioactivity of the filters was measured by liquid scintillation and the affinity of the test compounds for β1 -adrenergic receptors was compared using propranolol as a standard as in Test D. The results are reported in Table VI.

Another series deals with T2, β2 -adrenergic receptors (Rattus norvegicus, UniProt P10608).
T2 construct: cerebellums of male rats weighing an average of 150 g; from tissue; host or cells: cerebellum of male rats (membranes)
T2 sequence (P10608 whole entry): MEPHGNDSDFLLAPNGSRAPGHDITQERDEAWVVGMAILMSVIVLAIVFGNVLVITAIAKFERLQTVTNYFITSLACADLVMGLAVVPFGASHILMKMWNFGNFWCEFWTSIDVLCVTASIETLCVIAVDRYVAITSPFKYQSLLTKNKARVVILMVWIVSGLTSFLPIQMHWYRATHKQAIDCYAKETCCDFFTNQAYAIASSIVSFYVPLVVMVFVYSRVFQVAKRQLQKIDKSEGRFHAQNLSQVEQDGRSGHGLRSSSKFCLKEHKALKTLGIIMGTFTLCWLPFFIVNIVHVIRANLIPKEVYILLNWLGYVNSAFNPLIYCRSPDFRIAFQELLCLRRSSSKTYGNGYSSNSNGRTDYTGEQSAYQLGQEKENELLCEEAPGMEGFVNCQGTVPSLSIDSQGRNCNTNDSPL
Nature of the series: Affinity for β2 adrenergic receptors (3H dihydroalprenolol displacement, rat cerebellum). The series is classed as binding. The settings on record: relative to propranolol, 37° C., pH 7.7. The method, then:
The technique was inspired by that of Mohler et al [Science, Vol. 198 (1977), p. 849-851] and the cerebellums of male rats weighing an average of 150 g were homogenized in 90 ml of 0.32M sucrose. After centrifugation of the homogenized mixture at 1000 g for 20 minutes at 0° C., the surnageant was centrifuged at 30,000 g for 15 minutes at 0° to 4° C. The culot was suspended in 120 ml of buffer Tris HCl (50 mM-pH of 7.7) and the suspension was centrifuged at 30,000 g for 15 minutes at 0° to 4° C. The resulting culot was suspended in 480 ml of buffer Krebs Tris HCl with a pH of 7.7 and 2 ml of the suspension was incubated at 37° C. for 10 minutes in the presence of 3H dihydroalprenolol at a concentration of 10^-9 M alone and with increasing concentrations of the test compound or with 10^-5 M of non-radioactive propranolol to determine the non-specific fixation.
The incubated suspensions were filtered through Whatman FG/C filter and the filters were rinsed 3 times with 5 ml of buffer Krebs Tris HCl with a pH of 7.7 at 0° C. The radioactivity of the filters was measured by liquid scintillation and the affinity of the test compounds for β2 -adrenergic receptors relative to propranolol as a standard was determined similar as to Test D. The results are reported in Table VII.

Series [3] has as its system carotidien arterial pressure in rats. Put plainly: Hypotensive activity (carotidien arterial pressure in anesthesized rats). The series is classed as in vivo, rat (Wistar). The settings on record: rat, intravenous. The method, then: The hypotensive activity was studied on male rats of the Wistar strain weighing about 300 g and anesthesized with 50 mg/kg of nembutal intraveinously. The test products were administered intraveinously by the jugular vein and the carotidien arterial pressure was measured before and after administration of the test compounds. The variations expressed in percentage of arterial pressure after administration with respect to the initial pressure is reported in Table IV.

The mark [4] stands for this setting: 1 min, 1 minute, read-out: % Variation of arterial pressure after administration, 1 minute.
Setting [5] is: 5 min, 5 minutes, read-out: % Variation of arterial pressure after administration, 5 minutes.
Where [6] appears, read: 10 min, 10 minutes, read-out: % Variation of arterial pressure after administration, 10 minutes.
[7] abbreviates: 0.5 h, 30 minutes, read-out: % Variation of arterial pressure after administration, 30 minutes.

T1 sequence (P18090 whole entry): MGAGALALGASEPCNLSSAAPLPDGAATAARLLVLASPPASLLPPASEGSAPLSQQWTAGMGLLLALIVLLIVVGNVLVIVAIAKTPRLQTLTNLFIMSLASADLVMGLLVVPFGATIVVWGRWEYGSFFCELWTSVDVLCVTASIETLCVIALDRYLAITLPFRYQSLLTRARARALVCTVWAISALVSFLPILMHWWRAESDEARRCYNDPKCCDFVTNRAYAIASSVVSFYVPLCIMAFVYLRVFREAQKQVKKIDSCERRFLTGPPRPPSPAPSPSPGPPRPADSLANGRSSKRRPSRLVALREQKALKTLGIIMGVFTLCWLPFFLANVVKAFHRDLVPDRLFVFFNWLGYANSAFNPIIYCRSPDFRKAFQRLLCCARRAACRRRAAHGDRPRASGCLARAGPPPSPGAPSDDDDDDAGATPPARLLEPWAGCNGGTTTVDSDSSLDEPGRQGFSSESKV

Turning to `C=CCOc1ccccc1OCC(O)CN1CCC(c2c[nH]c3ccccc23)CC1` (stereo not drawn) [Example 1, 4-(1H-indol-3-yl)-α-[{2-(prop-2-enyloxy)-phenoxy}-methyl]-piperidine-1-ethanol hydrochloride], the change in vivo at 10 mg/kg in series [1] was found to be 63%. For the same compound, the “% Arl (relative affinity for α1 adrenergic receptors)” value in the series on α1 adrenergic receptors worked out at 247%. Also, the IC50 in series [2] amounted to 4 µM. The “DL0 (maximum dose which did not cause any deaths after 8 days)” value in the series on mice is 100. Besides, the “ARL in % (relative affinity for β1 adrenergic receptors)” value on β1 adrenergic receptors was found to be 7.3%. Besides, the “ARL in % (relative affinity for β2 adrenergic receptors)” value at β2 -adrenergic receptors was found to be 10.5%.

In the case of `N#Cc1ccccc1OCC(O)CN1CCC(c2c[nH]c3ccccc23)CC1` (stereo not drawn) [Example 4, 4-(1H--indol-3-yl)-α-[2-cyanophenoxymethyl]-piperidine-1-ethanol hydrochloride], the change in vivo at 1 mg/kg in series [3] (setting [4]) is -24%; in series [3] (setting [5]) it was -21%; in series [3] (setting [6]) it was -22%; in series [3] (setting [7]) it was -26%. Further, the change in vivo at 10 mg/kg in series [1] was 148%. Moreover, the “% Arl (relative affinity for α1 adrenergic receptors)” value in the series with α1 adrenergic receptors is listed as 145%. For the same compound, the IC50 in series [2] turned out to be 3.5 µM. Moreover, the “DL0 (maximum dose which did not cause any deaths after 8 days)” value with mice is recorded as > 100. Also, on β1 adrenergic receptors, the “ARL in % (relative affinity for β1 adrenergic receptors)” value came to 13.3%. Further, the “ARL in % (relative affinity for β2 adrenergic receptors)” value on β2 -adrenergic receptors was 1.1%.

As to `COC(=O)c1ccccc1OCC(O)CN1CCC(c2c[nH]c3ccccc23)CC1` (stereo not drawn) [Example 6, 4-(1H--indol-3-yl)-α-[2-methoxycarbonyl-phenoxymethyl]-piperidine-1-ethanol hydrochloride], the change in vivo at 1 mg/kg was -21% in series [3] (setting [4]), -13% in series [3] (setting [5]), -13% in series [3] (setting [6]) and 0% in series [3] (setting [7]). Further, in series [1], the change in vivo at 10 mg/kg was found to be 37%. In addition, the “% Arl (relative affinity for α1 adrenergic receptors)” value in the series on α1 adrenergic receptors turned out to be 253%. Moreover, the IC50 in series [2] stood at 3 µM. Also, in the series on mice, the “DL0 (maximum dose which did not cause any deaths after 8 days)” value was found to be 80. The “ARL in % (relative affinity for β1 adrenergic receptors)” value at β1 adrenergic receptors is reported as 1.3%. For the same compound, the “ARL in % (relative affinity for β2 adrenergic receptors)” value on β2 -adrenergic receptors is on record as 3.5%.

Regarding `C=CCc1ccccc1OCC(O)CN1CCC(c2c[nH]c3ccccc23)CC1` (stereo not drawn) [Example 7, 4-(1H--indol-3-yl)-α-[2-prop-2-enyl)-phenoxymethyl]-piperidine-1-ethanol hydrochloride], the change in vivo at 10 mg/kg in series [1] is 50%. Also, the “% Arl (relative affinity for α1 adrenergic receptors)” value with α1 adrenergic receptors was found to be 100%. The IC50 in series [2] is 0.32 µM. Also, the “DL0 (maximum dose which did not cause any deaths after 8 days)” value in the series on mice is on record as > 200. Moreover, the “ARL in % (relative affinity for β1 adrenergic receptors)” value at β1 adrenergic receptors is listed as 3.7%. Further, the “ARL in % (relative affinity for β2 adrenergic receptors)” value at β2 -adrenergic receptors stood at 10%.

Turning to `OC(COc1ccccc1C1CCCCC1)CN1CCC(c2c[nH]c3ccccc23)CC1` (stereo not drawn) [Example 15, 4-(1H--indol-3-yl)-α-[2-cyclohexyl-phenoxymethyl]-piperidine-1-ethanol hydrochloride], in series [2], the IC50 worked out at 5 µM. In addition, the “DL0 (maximum dose which did not cause any deaths after 8 days)” value in the series on mice is > 100. Moreover, the “ARL in % (relative affinity for β2 adrenergic receptors)” value on β2 -adrenergic receptors is reported as 5.4%.

With `C#CCc1ccccc1OCC(O)CN1CCC(c2c[nH]c3ccccc23)CC1` (stereo not drawn) [Example 16, 4-(1H--indol-3-yl)-α-[2-(prop-2-ynyl)-phenoxymethyl]-piperidine-1-ethanol hydrochloride], the change in vivo at 10 mg/kg in series [1] worked out at 71%. For the same compound, the “% Arl (relative affinity for α1 adrenergic receptors)” value with α1 adrenergic receptors came out at 321%. Further, the IC50 in series [2] came out at 1.6 µM. For the same compound, the “DL0 (maximum dose which did not cause any deaths after 8 days)” value in the series on mice is > 100. In addition, the “ARL in % (relative affinity for β1 adrenergic receptors)” value on β1 adrenergic receptors is recorded as 5.8%. The “ARL in % (relative affinity for β2 adrenergic receptors)” value at β2 -adrenergic receptors is given as 11%.

`CC(=O)c1ccccc1OCC(O)CN1CCC(c2c[nH]c3ccccc23)CC1` (stereo not drawn) [Example 17, 4-(1H--indol-3-yl)-α-[2-(acetyl-phenoxymethyl]-piperidine-1-ethanol hydrochloride]: the change in vivo at 1 mg/kg was -17% in series [3] (setting [4]), -5% in series [3] (setting [5]), -18% in series [3] (setting [6]) and -6% in series [3] (setting [7]). In series [1], the change in vivo at 10 mg/kg came to 142%. In addition, the “% Arl (relative affinity for α1 adrenergic receptors)” value with α1 adrenergic receptors stood at 159%. Further, the IC50 in series [2] was 6 µM. The “DL0 (maximum dose which did not cause any deaths after 8 days)” value with mice was > 100. The “ARL in % (relative affinity for β1 adrenergic receptors)” value on β1 adrenergic receptors is recorded as 1.2%. Besides, the “ARL in % (relative affinity for β2 adrenergic receptors)” value on β2 -adrenergic receptors turned out to be 3.3%.
